Usually IC50 stands for the concentration that inhibits the measured activity by half.

The results in this text go back to US12024531B2, “Immunoproteasome inhibitors” (Principia Biopharma Inc., priority 2017, dated 2024).

Experiment [1] has as its target immunoproteasome LMP7/B5i subunit (Homo sapiens, UniProt P28062). Put plainly: Caliper-based proteasome enzymatic activity assay, LMP7. It is filed as biochemical. Conditions: human recombinant immunoproteasome 0.3 nM, FAM peptide substrate 1 μM, rt 3 h.
The target in experiment [2] is constitutive proteasome β5c subunit (Homo sapiens, UniProt P28074). Put plainly: Caliper-based proteasome enzymatic activity assay, β5c. The note with it: human recombinant constitutive proteasome 0.3 nM, FAM peptide substrate 1 μM, rt 3 h. It is filed as biochemical.
Experiment [3] deals with immunoproteasome LMP2 subunit (Homo sapiens, UniProt P28065). Put plainly: Caliper-based proteasome enzymatic activity assay, LMP2. The experiment is classed as biochemical. The note with it: human recombinant immunoproteasome 0.3 nM, FAM peptide substrate 1 μM, rt 2 h.
Another experiment addresses PBMC LMP7 (Homo sapiens, UniProt P28062). Put plainly: Inhibition of proteasome activity in cells (Proteasome-Glo), PBMC/LMP7. The experiment is classed as cell-based. Conditions: 2 h incubation at 37° C. As for the experimental part: (§1) The cell-based effects of a compound described herein on the immunoproteasome were determined by measuring inhibition of proteasome activity in cells using the Proteasome-Glo™ Cell-Based Reagent (Promega, Madison WI). The Proteasome-Glo™ assay contains a specific luminogenic proteasome substrate in a buffer optimized for cell permeabilization, proteasome activity, and luciferase activity. For the chymotrypsin-like activity (LMP7 and 05c), the peptide substrate is Suc-LLVY-aminoluciferin (Succinyl-leucine-leucine-valine-tyrosine-aminoluciferin). Cleavage of the substrate by proteasome results in luminescent signal which is proportional to the proteasome activity. The cell line THP-1 (a monocytic leukemia cell line enriched in immunoproteasome), the cell line HT-29 (a colorectal adenocarcinoma cell line enriched in constitutive proteasome), and primary human peripheral blood mononuclear cells (PBMC) were used to assess proteasome activity. Cells were seeded in a 96-well plate at 10,000 cells per well in RPMI 1640 high glucose medium with 10% fetal bovine serum (FBS). Compound dilutions were added to cells starting at a concentration of 5 uM and decreasing in tripling dilutions. The final DMSO concentration was 1%. The concentration range was adjusted as needed for compounds of different potencies. The cells treated with compounds were incubated for 2 h at 37° C. in 5% CO2. At the end of the 2 hour incubation period, cells were transferred to white 384 well assay plates. 20 uL of Proteasome-Glo™ Reagent was added to each well and incubated for 10 minutes at rt. The plate was read in the Analyst HT instrument (Molecular Devices, Sunnyvale, CA) using luminescence mode. The percent inhibition of activity was plotted as a function of log compound concentration. The IC50 was then calculated for each compound using Prism software from GraphPad Software Inc. (San Diego, CA).

In another experiment the target is PBMC LMP2 (Homo sapiens, UniProt P28065). Put plainly: Inhibition of proteasome activity in cells (Proteasome-Glo), PBMC/LMP2. The experiment is classed as cell-based. The note with it: 2 h incubation at 37° C. As for the experimental part:
as §1

As to `N#CC(=Cc1cccc(OCCC(=O)N[C@@H](Cc2ccccc2)B(O)O)c1)c1ccccn1` [Example 6, (R)-(1-(3-(3-(2-cyano-2-(pyridin-2-yl)vinyl)phenoxy)propanamido)-2-phenylethyl)boronic Acid], the IC50 was 8 nM in experiment [1]; 89 nM in experiment [2]; 84 nM in experiment [3]; 7 nM at PBMC LMP7; greater than 5000 nM at PBMC LMP2.
With `CC(C)(C)NC(=O)C(C#N)=Cc1cccc(OCCC(=O)N[C@@H](CCc2ccccc2)B(O)O)c1` [Example 11, (R)-1-(3-(3-(3-(tert-butylamino)-2-cyano-3-oxoprop-1-enyl)phenoxy)propanamido)-3-phenylpropylboronic Acid], the IC50 in experiment [1] was 2 nM; in experiment [2], 310 nM; in experiment [3], greater than 5000 nM; against PBMC LMP7, 3 nM; at PBMC LMP2, greater than 5000 nM.
As for `CC(C)(C)NC(=O)C(C#N)=Cc1cccc(OCCC(=O)N[C@@H](Cc2coc3ccccc23)B(O)O)c1` [Example 14, (R)-(2-(benzofuran-3-yl)-1-(3-(3-(3-(tert-butylamino)-2-cyano-3-oxoprop-1-en-1-yl)phenoxy)propanamido)ethyl)boronic Acid], the IC50 in experiment [1] came to 0.2 nM; in experiment [2], 4 nM; in experiment [3] it was 3240 nM; against PBMC LMP7, 2 nM; against PBMC LMP2, 510 nM.
As to `CN(C)C(=O)C(C#N)=Cc1cccc(COC(=O)N[C@@H](Cc2ccccc2)B(O)O)c1` [Example 15, (R)-(1-((((3-(2-cyano-3-(dimethylamino)-3-oxoprop-1-en-1-yl)benzyl)oxy)carbonyl)amino)-2-phenylethyl)boronic Acid], the IC50 in experiment [1] is 8 nM; in experiment [2], 3240 nM; in experiment [3], 2920 nM; at PBMC LMP7 it was 18 nM; against PBMC LMP2, greater than 5000 nM.
As to `CN(C)C(=O)C(C#N)=Cc1cccc(CCOC(=O)N[C@@H](Cc2ccccc2)B(O)O)c1` [Example 17, (R)-(1-(((3-(2-cyano-3-(dimethylamino)-3-oxoprop-1-en-1-yl)phenethoxy)carbonyl)amino)-2-phenylethyl)boronic Acid], the IC50 in experiment [1] is 8 nM; in experiment [2] it was 1310 nM; in experiment [3], greater than 5000 nM; at PBMC LMP7, 9 nM; against PBMC LMP2, greater than 5000 nM.
For `N#CC(=Cc1cccc(OCCC(=O)N[C@@H](CCc2ccccc2)B(O)O)c1)c1ccccn1` [Example 21, (R)-(1-(3-(3-(2-cyano-2-(pyridin-2-yl)vinyl)phenoxy)propanamido)-3-phenylpropyl)boronic Acid], the concentration for half-maximal inhibition (IC50) in experiment [1] is 27 nM; in experiment [2] it was 260 nM; in experiment [3], greater than 5000 nM; against PBMC LMP7, 8 nM.
With `N#CC(=Cc1cccc(CCOC(=O)N[C@@H](Cc2coc3ccccc23)B(O)O)c1)c1ccccn1` [Example 35, (R)-(2-(benzofuran-3-yl)-1-(((3-(2-cyano-2-(pyridin-2-yl)vinyl)phenethoxy)carbonyl)amino)ethyl)boronic Acid], the half-inhibitory concentration (IC50) in experiment [1] is 2 nM; in experiment [2], 66 nM; in experiment [3] it was greater than 5000 nM; against PBMC LMP7 it was 3 nM.
Take `Cc1ccc(C[C@H](NC(=O)OCCc2cccc(C=C(C#N)C(=O)N(C)C)c2)B(O)O)cc1` [Example 50, (R)-(1-(((3-(2-cyano-3-(dimethylamino)-3-oxoprop-1-en-1-yl)phenethoxy)carbonyl)amino)-2-(p-tolyl)ethyl)boronic Acid]: the IC50 in experiment [1] is 1.5 nM; in experiment [2], 1090 nM; in experiment [3], greater than 5000 nM; against PBMC LMP7 it was 4 nM.
With `CCN(CC)C(=O)C(C#N)=Cc1cccc(CCOC(=O)N[C@@H](Cc2ccccc2)B(O)O)c1` [Example 52, (R)-(1-(((3-(2-cyano-3-(diethylamino)-3-oxoprop-1-en-1-yl)phenethoxy)carbonyl)amino)-2-phenylethyl)boronic Acid], the IC50 in experiment [1] is 10.3 nM; in experiment [2] it was greater than 5000 nM; in experiment [3], greater than 5000 nM; on PBMC LMP7 it was 44 nM.
With `N#CC(=Cc1cccc(CCOC(=O)N[C@@H](Cc2ccccc2)B(O)O)c1)c1ncccc1F` [Example 54, (R)-(1-(((3-(2-cyano-2-(3-fluoropyridin-2-yl)vinyl)phenethoxy)carbonyl)amino)-2-phenylethyl)boronic Acid], the half-maximal inhibitory concentration (IC50) was 3.3 nM in experiment [1], 610 nM in experiment [2], greater than 5000 nM in experiment [3] and 4 nM at PBMC LMP7.
On the same counts, the results for `CCN(CC)C(=O)C(C#N)=Cc1cccc(CCOC(=O)N[C@@H](Cc2ccc(C)cc2)B(O)O)c1` [Example 55, (R)-(1-(((3-(2-cyano-3-(diethylamino)-3-oxoprop-1-en-1-yl)phenethoxy)carbonyl)amino)-2-(p-tolyl)ethyl)boronic Acid] are 2 nM, 1180 nM, greater than 5000 nM and 4 nM.
Take `CCN(CC)C(=O)C(C#N)=Cc1cccc(CCOC(=O)N[C@@H](Cc2coc3ccccc23)B(O)O)c1` [Example 58, (R)-(2-(benzofuran-3-yl)-1-(((3-(2-cyano-3-(diethylamino)-3-oxoprop-1-en-1-yl)phenethoxy)carbonyl)amino)ethyl)boronic Acid]: the half-maximal inhibitory concentration (IC50) in experiment [1] is 1.7 nM; in experiment [2] it was 255 nM; in experiment [3], greater than 5000 nM; at PBMC LMP7, 12 nM.
Regarding `N#CC(=Cc1cccc(CCOC(=O)N[C@@H](Cc2ccccc2)B(O)O)c1)c1ncccn1` [Example 60, (R)-(1-(((3-(2-cyano-2-(pyrimidin-2-yl)vinyl)phenethoxy)carbonyl)amino)-2-phenylethyl)boronic Acid], the 50% inhibitory concentration (IC50) in experiment [1] came out at 1.1 nM; in experiment [2], 167 nM; in experiment [3] it was 1020 nM; on PBMC LMP7, 2 nM.
On the same counts, the results for `N#CC(=Cc1cccc(CCOC(=O)N[C@@H](Cc2ccccc2)B(O)O)c1)C(=O)N1C2CCC1COC2` [Example 67, ((1R)-1-(((3-(3-(3-oxa-8-azabicyclo[3.2.1]octan-8-yl)-2-cyano-3-oxoprop-1-en-1-yl)phenethoxy)carbonyl)amino)-2-phenylethyl)boronic Acid] are 0.4 nM, greater than 5000 nM, 2320 nM and 2 nM.
Taken in the same sequence, the figures for `CCN(C(=O)C(C#N)=Cc1cccc(CCOC(=O)N[C@@H](Cc2ccccc2)B(O)O)c1)C1CCOCC1` [Example 70, (R)-(1-(((3-(2-cyano-3-(ethyl(tetrahydro-2H-pyran-4-yl)amino)-3-oxoprop-1-en-1-yl)phenethoxy)carbonyl)amino)-2-phenylethyl)boronic Acid] were 0.6 nM, greater than 5000 nM, 4250 nM and 2 nM.
With `Cc1ccc(C[C@H](NC(=O)OCCc2cccc(C=C(C#N)C(=O)N3[C@@H](C)COC[C@@H]3C)c2)B(O)O)cc1` [Example 92, ((R)-1-(((3-(2-cyano-3-((3S,5S)-3,5-dimethylmorpholino)-3-oxoprop-1-en-1-yl)phenethoxy)carbonyl)amino)-2-(p-tolyl)ethyl)boronic Acid], the IC50 was 0.6 nM in experiment [1], 532 nM in experiment [2] and greater than 5000 nM in experiment [3].
Consider `CC1(C)COCCN1C(=O)C(C#N)=Cc1cccc(CCOC(=O)N[C@@H](Cc2coc3ccccc23)B(O)O)c1` [Example 93, (R)-(2-(benzofuran-3-yl)-1-(((3-(2-cyano-3-(3,3-dimethylmorpholino)-3-oxoprop-1-en-1-yl)phenethoxy)carbonyl)amino)ethyl)boronic Acid], for which the IC50 was 1.1 nM in experiment [1], 45 nM in experiment [2] and greater than 5000 nM in experiment [3].
Taken in the same sequence, the figures for `N#CC(=Cc1cccc(CCNC(=O)N[C@@H](Cc2coc3ccccc23)B(O)O)c1)c1ncccn1` [Example 94, (R)-(2-(benzofuran-3-yl)-1-(3-(3-(2-cyano-2-(pyrimidin-2-yl)vinyl)phenethyl)ureido)ethyl)boronic Acid] were 2.2 nM, 15 nM and greater than 5000 nM.
Regarding `CCN(CC)C(=O)C(C#N)=Cc1cc(C#N)cc(CCOC(=O)N[C@@H](Cc2ccc(C)cc2)B(O)O)c1` [Example 101, (R)-(1-(((3-cyano-5-(2-cyano-3-(diethylamino)-3-oxoprop-1-en-1-yl)phenethoxy)carbonyl)amino)-2-(p-tolyl)ethyl)boronic Acid], the IC50 in experiment [1] is 0.6 nM; in experiment [2] it was 440 nM; in experiment [3] it was greater than 5000 nM.
